Assay results as given in patent US8481587B2, “Substituted 2-(5-hydroxy-2-methyl-1H-indole-3-yl)acetic acids and ethers thereof and the use of same to treat viral diseases” (priority 2008, dated 2013).
≈ marks a conversion by molar mass, not a printed value. Where a name gives a salt, the structure may show the parent alone. Read-outs that look alike come from different tables or passages of the source.

Assays:
[1] = tested on: hepatisis C viruses (HCV) strain JFH-1; assay: Antiviral activity towards HCV in infected Huh7 cells (core-antigen ELISA); type: cell-based, HCV strain JFH-1 in human hepatoma (Huh7) cells; details: Hepatitis C virus, Huh-7; HCV strain JFH-1, Huh7 cells
Method: Determination of antiviral activity of the compounds of the general formula 1 towards hepatisis C viruses. Determination of antiviral activity of the compounds of the general formula 1 towards hepatisis C viruses (HCV) strain JFH-1 in cell culture of human hepatoma (Huh7) infected with HCV.
Cells Huh7 were embedded in 96-well plates (7.5×10^3 cells in every well in 50 μl of nutrient solution). 5×-concentrated solutions of the tested compounds in DMEM medium {DMEM) 1×; the source: Cellgro; Catalogue: 10-013-CV} were prepared just before the usage. In total, four serial fivefold dilutions with concentration ranging from 250 μM to 2 μM were prepared. In 4 hours after cell embedding serial dilutions of the compounds were added to the cells (50 mkl per one well). Each dilution of the examined compound was tested for two identical wells. The final DMSO concentration amounted up to 0.5%. Then, the cells were incubated for 3 hours at 37° C./5% CO2. After the incubation virus (300 tissue culture infective doses in 30 μl per one well) was added to the cells. […]. Then the cells were incubated for 3 hours at 37° C./5% CO2. The cells were fixed by addition acetone/methanol (1:1) mixture in amount of 250 gμl/well. In one minute the cells were washed with Phosphate Buffered Saline (PBS) three times. After that the cells were quenched by addition of 10% solution of fetal calf serum in PBS (150 μl/well) and kept for one hour at room temperature. Then the cells were incubated with mouse monoclonal antibody (100 μl/well) to cor-antigen HCV, clone C7-50 (Source: Affinity BioReagents; Catalogue: MA1-080) (working dilution—1:500 in 10% solution of fetal calf serum in PBS) for two hours at 37° C. The cells were washed 6 times with PBS/0.05% Tween 20 solution and incubated for one hour with peroxidase conjugated goat anti-mouse immunoglobulin (100 μl/well) (working dilution—1:2500 in 10% solution of fetal calf serum in PBS). The cells were washed 6 times with PBS/0.05% Tween 20 solution, then with PBS solution, and 100 μl/well of the substrate (consisting of 1 tablet of oPD, 12 ml of citrate/phosphate buffer and 5 μl of 30% H2O2) were added. The plates were kept for 30 min in darkness at room temperature. The reaction was stopped by addition of 2N […] (100 μl/well), optical density (at 490 nm) was measured with the help of multichannel spectrophotometer Victor3 V 1420 (Perkin Elmer). IC50 values for every tested compound were calculated using XLfit 4 programm.

[2] = tested on: influenza A/New Caledonia/20/99 (H1N1) viruses; assay: microbe, parasite or virus in culture; type: cell-based
[3] = tested on: some other cellular lines; details: cited from earlier work
[4] = tested on: cellular line MDCK; details: cited from earlier work
[5] = tested on: influenza virus; details: cellular line MDCK, cited from earlier work
[6] = influenza A/New Caledonia/20/99 (H1N1), MDCK cells, ELISA, read-out: IC50

Row | SMILES | IC50 [1] | IC50 [2, 6] | other results
1 | COC(=O)Cc1c(C)[nH]c2ccc(OC)c(F)c12 [1.1(1), methyl 2-(2-methyl-5-methoxy-4-fluoro-1H-indol-3-yl)acetate] | 38 µM |  | 
2 | COC(=O)Cc1c(C)[nH]c2cc(F)c(OC)cc12 [1.2(1), methyl 2-(2-methyl-5-methoxy-6-fluoro-1H-indol-3-yl)acetate] | 13 µM |  | 
3 | COC(=O)Cc1c(C)[nH]c2cc(C(F)(F)F)c(OC)cc12 [1.4(1), methyl 2-(2-methyl-5-methoxy-6-(trifluoromethyl)-1H-indol-3-yl)acetate] | 1.7 µM | > 15 µg/mL | 
4 | COC(=O)Cc1c(C)n(C(=O)c2ccc(Cl)cc2)c2ccc(OC)c(F)c12 [1e(1), methyl 2-[2-methyl-5-methoxy-4-fluoro-1-(4-chlorobenzoyl)-1H-indol-3-yl]acetate] | 39 µM |  | 
5 | COC(=O)Cc1c(C)n(C)c2cc(F)c(OC)cc12 [1g(2), methyl 2-(1,2-dimethyl-5-methoxy-6-fluoro-1H-indol-3-yl)acetate] | 6.3 µM | 10 µg/mL (≈ 37.7 µM) | 
6 | COC(=O)Cc1c(C)n(C)c2cc(C(F)(F)F)c(OC)cc12 [1g(4), methyl 2-(1,2-dimethyl-5-methoxy-6-(trifluoromethyl)-1H-indol-3-yl)acetate] | 2.4 µM |  | 
7 | COc1ccc2c(c1F)c(CC(=O)O)c(CN(C)C)n2C [1i(13), 2-(2-(dimethylamino)methyl-1-methyl-5-methoxy-4-fluoro-1H-indol-3-yl)acetic acid] |  | 12 µg/mL (≈ 40.8 µM) | 
8 | COC(=O)C(CCN(C)C)c1c(C)n(C)c2cc(C(F)(F)F)c(OC)cc12 (centres unmarked) [1p(2)•HCl, methyl 2-(1,2-dimethyl-5-methoxy-6-(trifluoromethyl)-1H-indol-3-yl)-4-dimethylaminobutyrate] |  |  | IC50 ([2]; H1N1, MDCK): 12 µg/mL
9 | CN(C)Cc1c(CC(=O)O)c2cc(O)c(-c3cccnc3)cc2n1C [1t(5), 2-(5-hydroxy-2-(dimethylamino)methyl-1-methyl-6-(pyridin-3-yl)-1H-indol-3-yl)acetic acid] |  | > 15 µg/mL | 
10 | Cc1c(CC(=O)O)c2cc(O)c(F)cc2n1C [1u(6), 2-(5-hydroxy-1,2-dimethyl-6-fluoro-1H-indol-3-yl)acetic acid] |  | > 15 µg/mL | 
11 | COC(=O)Cc1c(C)n(C)c2cc(F)c(O)cc12 [1v(1), methyl 2-(5-hydroxy-1,2-dimethyl-6-fluoro-1H-indol-3-yl)acetate] | 50 µM |  | 
12 | CCOC(=O)c1c(CSc2ccccc2)n(C)c2cc(Br)c(O)c(CN(C)C)c12.Cl [Arbidol, ethyl 6-bromo-4-[(dimethylamino)methyl]-5-hydroxy-1-methyl-2-(phenylthiomethyl)-1H-indole-3-carboxylate hydrochloride] |  |  | CC50 [3]: 15 to 25 µg/mL; TC50 [4]: 62.5 µg/mL; selectivity index (SI50) ([5]; for influenza virus): 2.69; IC50 ([5]; influenza virus): 23.2 mkg/ml
